These are literature values, as cited in patent US20010006649A1, “STABLE ORAL PHARMACEUTICAL DOSAGE FORMS” (priority 1997, published 2001).

For data set [1] the following is noted: omeprazole solution, pH-decomposition rate profile.
The conditions of data set [2]: enteric granule formulations, alkaline stabilizers screened.

As to `COc1ccc2[nH]c([S+]([O-])Cc3ncc(C)c(OC)c3C)nc2c1` (stereo not drawn) [omeprazole, 2-[2-(3,5-dimethyl-4-methoxy)-pyridylmethylsulfinyl]-(5-methoxy)-benzimidazole], the “pH of maximum stability” value in data set [1] was 11.
With `Cc1c(OCC(F)(F)F)ccnc1C[S+]([O-])c1nc2ccccc2[nH]1` (stereo not drawn) [Lansoprazole, 2-[[[3-methyl-4-(2,2,2-trifluroethoxy)-2-pyridyl]methyl]sulfinyl] benzimidazole], the “stability when exposed to light” value is “relatively stable”. Further, the “optimal pH stability” value in data set [2] is on record as 9.
